Test systems include HOP-92 NSCLC; SK-MEL-2 melanoma; EKVX NSCLC; MALME-3M melanoma; NCI-H226 lung; OVCAR-3 ovarian; SK-MEL-5 melanoma; SF-539 CNS; K-562 leukemia; NCI-H460 lung.
Test in all cases: growth of human tumour cells (NCI), 48 h

“And” between values parts separate entries of the source, which are not always exact repeats. Equal values may be shown once.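 Briefly, cells in 96-well plates were exposed to five compound concentrations for 48 h, and endpoints were estimated by linear interpolation. GI50 marks 50% less growth. TGI is the concentration that stops growth completely.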

On to `CCCNCCCC(NC(C)=O)C(=O)NCc1ccccc1` (stereo unspecified), for which the TGI with HOP-92 NSCLC, in the test with SK-MEL-2 melanoma, in the test with EKVX NSCLC, in the test with MALME-3M melanoma, with NCI-H226 lung and with OVCAR-3 ovarian was more than 100 µM in each case. Also, the TGI with SK-MEL-5 melanoma, in the test on SF-539 CNS, in the test on K-562 leukemia and in the test with NCI-H460 lung was more than 100 µM in each case.
Turning to `CCOC(=O)C1(Br)C(c2ccccc2)NC(=O)NC1(C)Br` (stereo unspecified), the TGI was more than 93.5 µM in the test on HOP-92 NSCLC; more than 100 µM in the test with SK-MEL-2 melanoma; more than 100 µM in the test with EKVX NSCLC; more than 100 µM in the test on MALME-3M melanoma; more than 100 µM in the test on NCI-H226 lung; more than 100 µM with OVCAR-3 ovarian. Also, the TGI with SK-MEL-5 melanoma was more than 100 µM; in the test with SF-539 CNS it was more than 100 µM; in the test on K-562 leukemia it was more than 94.5 µM; with NCI-H460 lung, more than 100 µM. Further, the GI50 in the test with SF-539 CNS is more than 100 µM.
In the case of `O=C1C=C(NCCNC(=S)Nc2ccccc2)c2nccc3c2c1nc1ccccc13`, the GI50 in the test on HOP-92 NSCLC is more than 100 µM; in the test on SK-MEL-2 melanoma, more than 100 µM; in the test on EKVX NSCLC it was more than 100 µM; in the test on MALME-3M melanoma it was 30.1 µM; with NCI-H226 lung, 70 µM; with OVCAR-3 ovarian it was 18.1 µM. Further, the GI50 with SK-MEL-5 melanoma was 27.5 µM; with SF-539 CNS, 49.1 µM; with K-562 leukemia, 35.1 µM; in the test with NCI-H460 lung it was 29.4 µM. Further, the TGI in the test on HOP-92 NSCLC, with SK-MEL-2 melanoma, in the test with EKVX NSCLC, with MALME-3M melanoma, in the test with NCI-H226 lung and with OVCAR-3 ovarian was more than 100 µM throughout. The TGI with SK-MEL-5 melanoma, with SF-539 CNS, with K-562 leukemia and in the test with NCI-H460 lung was more than 100 µM each time.
In the case of `C=CC1[C@H]2COC(C)(C)O[C@@H]2CC(=O)C1(C)C` (stereo partly specified), the TGI with HOP-92 NSCLC, with SK-MEL-2 melanoma, in the test on EKVX NSCLC, with MALME-3M melanoma, with NCI-H226 lung and in the test on SF-539 CNS was more than 100 µM in each case. This molecule showed a TGI with NCI-H460 lung of more than 100 µM.
Regarding `Cc1ccc(-c2cc(-c3ccco3)c(C#N)c(=O)[nH]2)cc1`, the TGI in the test with HOP-92 NSCLC, in the test with EKVX NSCLC, in the test with MALME-3M melanoma, in the test on NCI-H226 lung, with OVCAR-3 ovarian and in the test on SK-MEL-5 melanoma was more than 100 µM each time. For the same molecule, the TGI with SF-539 CNS, in the test on K-562 leukemia and with NCI-H460 lung was more than 100 µM in each case.
Take `CO/C(=N\N=C\c1cccc(Cl)c1)c1ccncc1`: the TGI with HOP-92 NSCLC, in the test on SK-MEL-2 melanoma, in the test on EKVX NSCLC, with MALME-3M melanoma, in the test with NCI-H226 lung and in the test on OVCAR-3 ovarian was more than 10 µM in each case. The TGI with K-562 leukemia and with NCI-H460 lung was more than 10 µM each time.
Take `COc1cc2c(c(OC)c1OC)-c1ccc(N)c(=O)cc1[C@@H](NC(C)=O)CC2`: the GI50 with HOP-92 NSCLC is 0.0409 µM; in the test with SK-MEL-2 melanoma, less than 0.01 µM; in the test with EKVX NSCLC it was 0.0808 µM; in the test with MALME-3M melanoma, 48.8 µM; in the test on NCI-H226 lung, 0.0852 µM; in the test on OVCAR-3 ovarian, less than 0.012 µM. For the same molecule, the GI50 in the test with SF-539 CNS was 0.0289 µM; with K-562 leukemia it was less than 0.014 µM; in the test on NCI-H460 lung, 0.0294 µM. Moreover, the TGI was more than 100 µM with HOP-92 NSCLC; 0.0353 µM in the test on SK-MEL-2 melanoma; more than 100 µM in the test with EKVX NSCLC; more than 100 µM in the test with MALME-3M melanoma; 0.0362 µM in the test with OVCAR-3 ovarian; more than 100 µM with SF-539 CNS. Besides, the TGI with K-562 leukemia was more than 100 µM.
On to `CC[C@@]1(O)C[C@H](OC2CC(N(C)C)C(OC3CC(O)C(OC4CCC(=O)C(C)O4)C(C)O3)C(C)O2)c2c(cc3c(c2O)C(=O)c2c(O)cccc2C3=O)[C@H]1C(=O)OC` (stereo partly specified), for which the TGI in the test on HOP-92 NSCLC is 0.129 µM and 0.161 µM; in the test with SK-MEL-2 melanoma, 0.118 µM; with EKVX NSCLC, 0.415 µM and 0.452 µM; with MALME-3M melanoma, 0.0991 µM and 0.128 µM; in the test on NCI-H226 lung, 0.0948 µM and 0.13 µM; with OVCAR-3 ovarian, 0.6 µM and 0.169 µM. In addition, the TGI with SK-MEL-5 melanoma is 0.0592 µM and 0.164 µM; with SF-539 CNS, 0.0917 µM and 0.216 µM; in the test on NCI-H460 lung it was 0.06 µM and 0.0662 µM.
As to `O=C(O)C1C2CCC(O2)C1C(=O)N1CCCCC1` (stereo unspecified), the TGI stood at 7.33 µM in the test with HOP-92 NSCLC; 21.2 µM in the test on SK-MEL-2 melanoma; 29.2 µM with EKVX NSCLC; 23.6 µM with MALME-3M melanoma; 16.6 µM with NCI-H226 lung; 4.66 µM with OVCAR-3 ovarian. Also, the results for the TGI with SK-MEL-5 melanoma, in the test on SF-539 CNS and in the test with NCI-H460 lung were 29.7 µM, 23.5 µM and 39.2 µM, respectively.
As to `Cc1c(S(C)(=O)=O)c(-c2cc(F)cc(N3CCN(c4ccc(NS(=O)(=O)c5ccc(N[C@H](CCN6CCC(C(=O)OCCCP(=O)(O)O)CC6)CSc6ccccc6)c(S(=O)(=O)C(F)(F)F)c5)cc4)CC3)c2)c(-c2ccc(Cl)cc2)n1C(C)C`, the GI50 in the test with HOP-92 NSCLC is 0.0794 µM; in the test with SK-MEL-2 melanoma, more than 100 µM; in the test with EKVX NSCLC it was more than 100 µM; in the test with MALME-3M melanoma, more than 100 µM; with NCI-H226 lung it was more than 100 µM; in the test on OVCAR-3 ovarian it was more than 100 µM. The GI50 in the test with SK-MEL-5 melanoma, with SF-539 CNS and in the test with NCI-H460 lung was more than 100 µM throughout. The TGI in the test with HOP-92 NSCLC was 0.952 µM; in the test with SK-MEL-2 melanoma, more than 100 µM; with EKVX NSCLC, more than 100 µM; in the test on MALME-3M melanoma, more than 100 µM; in the test with NCI-H226 lung, more than 100 µM; in the test with OVCAR-3 ovarian, more than 100 µM. In addition, the TGI in the test with SK-MEL-5 melanoma, with SF-539 CNS and in the test with NCI-H460 lung was more than 100 µM in each case.
As for `COC1=CC(=O)C2C(C1=O)[C@@H]1c3ccccc3C[C@H]21` (stereo partly specified), the TGI in the test with HOP-92 NSCLC, in the test on SK-MEL-2 melanoma, with EKVX NSCLC, in the test on MALME-3M melanoma, with OVCAR-3 ovarian and in the test with SK-MEL-5 melanoma was more than 100 µM each time. Further, the TGI in the test on SF-539 CNS, in the test on K-562 leukemia and in the test with NCI-H460 lung was more than 100 µM each time.

Source of the values: PubChem BioAssay (NCI).
